Experimental data as given in patent US20240226170A9, “USE OF MBV FOR TREATING AUTOIMMUNE DISEASE” (University of Pittsburgh - Of the Commonwealth System of …, priority 2019, published 2024).

Assays:
[1] = system: antibody response to the KLH antigen; settings: days 7, 14, and 21 post-immunization; MBV 1 mg/ml i.v. on Day 0, 3, 6; cyclophosphamide 200 mg/kg i.p. on Day 0
Method: The Keyhold Limpet Hemocyanin (KLH) rat model of immunosuppression and immunotoxicity was used to assess immunotoxicity of MBV delivered systemically. […] On Day 0, the cyclophosphamide treated animals received 200 mg/kg i.p. and the MBV treated animals received 1 mg/ml UBM MBV delivered intravenously on Day 0, 3, and 6. On Day 7, all groups besides the vehicle control were immunized with 0.4 mL of 1000 μg/ml reconstituted KLH in Freund's incomplete adjuvant i.p. On days 14, 21, and 28 (7, 14, and 21 days post-immunization), whole blood was collected from the lateral tail vein and serum was isolated for analysis of anti-KLH IgM and IgG. Anti-KLH IgM and IgG were assessed in the serum of all animals using ELISA.

[2] = system: Pristane-induced arthritis; experiment: Pristane-induced arthritis in rats, 60-point arthritis score; assay type: in vivo; settings: for disease severity (arthritis score) compared to Pristane+PBS: p<0.05
Method: The Pristane-induced arthritis model in rats has been established as a clinically-relevant animal model for studying rheumatoid arthritis (Tuncel et al. PLoS One. 2016; 11(5):e0155936). Pristane induced arthritis was induced in 8-week-old, female, Sprague-Dawley rats by an intradermal injection of 300 μL Pristane (2,6,10,14-tetramethypentadecane) at the dorsal side of the tail, 1 cm distal to the base on Day 0 of the study. […] A second dose of 300 μL pristane was administered intradermally, approximately 1 cm distally to the dorsal tail base on Day 4. Animals receiving Pristane were housed together in cages. Animals receiving Pristane were randomized into the following experimental groups: Pristane-only+PBS, Pristane+i.p. Methotrexate (MTX), Pristane+periarticular (p.a.) MBV, and intravenous (i.v.) MBV.
An arthritis score was determined on days 7, 10, 14, 17, 21, 28, and every week thereafter through an endpoint of 100 days for each animal. Photographs of each forepaw and hindpaw were taken as viewed from the volar and plantar perspectives, respectively. Qualitative arthritis severity was evaluated by two independent reviewers using a 60-point arthritis scoring criteria: 1 point was given for each inflamed knuckle or toe, and up to 5 points was assigned for an affected ankle (15 points per paw, 60 points per each rat). […] The Pristane+i.p. methotrexate animals received 0.1 mg/kg methotrexate in 1× sterile PBS (pH 7.4) delivered intra-peritoneally (i.p.) on days 7, 10, 14, 17, and 21. The Pristane+periarticular MBV animals received 25 μL of 500 μg/mL porcine-derived UBM MBV (1×10^11 particles/mL) delivered in the plantar and volar surfaces of hindpaws and forepaws, respectively. The intravenous MBV group received 100 μL of 500 μg/mL UBM MBV (1×10^11 particles/mL) delivered intravenously into the lateral tail vein of the animal. (FIG. 12A) Four animals in each group were assigned to a short-term study of 28 days and four animals were assigned to a 100 day study. Sample size was determined using previously published effect size of methotrexate with a predetermined alpha 0.05 and beta 0.80. Arthritis score was represented as mean+/−standard error of mean. Days 7-21 represent an n of 8 for each group and then days 28 and onward represent an n of 4 for each group. Differences in groups were analyzed using two-way analysis of variance with Tukey's post-hoc correction. Significance was determined prior to the study as p<0.05.

[3] = system: bone remodeling and joint destruction in fore- and hindpaws; experiment: MicroCT imaging of paws at day 100 (pristane-induced arthritis); assay type: in vivo, Sprague-Dawley rats; settings: i.p. MTX, qualitative
Description: Micro-Computed Tomography (microCT) images were acquired of hindpaws after sacrifice at day 100 of the animals studied in Example 2.

[4] = system: tibiotalar joint and adjacent synovium; experiment: Histopathologic scoring of the tibiotalar joint at day 100 (pristane-induced arthritis); assay type: in vivo, Sprague-Dawley rats; settings: i.p. MTX, not significant (p>0.05)
Description: Synovial inflammation, cartilage destruction, and proteoglycan loss are fundamental histopathologic changes that occur in RA disease progression. To determine the effect of MBV treatment on these histopathologic parameters, rat hind paws were collected at study termination for histopathologic imaging and analysis (day 100) from the animals from Example 2.
One hindpaw from each animal was used for histopathological analysis. Tissue specimens were fixed with 10% formalin in PBS, pH 7.4, decalcified using 5% formic acid, and embedded in paraffin wax. Sections were stained with hematoxylin and eosin (H&E) for examination by light microscopy for joint histology and pathology. […]
Inflammation and joint damage of the tibiotalar joint were investigated by using an adapted three-parameter scoring system. Inflammation was scored on a scale of 0-3 (with 0 representing no inflammation and 3 a severe inflamed joint) depending on the relative proportion of inflammatory cells in the synovial tissue. Cartilage destruction was scored on a scale of 0-3, with results ranging from the appearance of dead chondrocytes and empty lacunae to complete loss of articular cartilage. Loss of proteoglycans in cartilage was scored on a scale of 0-3, and here results ranged from fully stained cartilage by toluidine blue staining to complete loss of articular cartilage. […]

SMILES	anti-KLH IgG levels compared to the Vehicle+KLH control [1]	anti-KLH IgM levels compared to the Vehicle+KLH control [1]	peak disease score ([2]; acute phase (days 0-42), Pristane+i.p. MTX 0.1 mg/kg on days 7, 10, 14, 17, 21, peak at day 21, mean±SEM)	disease severity (arthritis score) compared to Pristane+PBS ([2]; acute phase, Pristane+i.p. MTX 0.1 mg/kg)	disease severity (arthritis score) compared to Pristane+PBS ([2]; acute phase, Pristane+i.p. MTX 0.1 mg/kg, listed as methotrexate)	disease severity (arthritis score) compared to Pristane+PBS ([2]; chronic phase, days 84-100, no treatment after day 28, Pristane+i.p. MTX)	disease severity (arthritis score) compared to Pristane+PBS ([2]; chronic phase, days 84-100, no treatment after day 28, Pristane+i.p. MTX, listed as methotrexate)	adverse bone remodeling by microCT, compared to the vehicle control [3]	severity of cartilage damage compared to Pristane+PBS [4]	severity of proteoglycan loss compared to Pristane+PBS [4]
O=P1(N(CCCl)CCCl)NCCCO1 (stereo not shown) [Cyclophosphamide]	significantly reduces anti-KLH IgG levels	significantly reduces anti-KLH IgM levels	–	–	–	–	–	–	–	–
CN(Cc1cnc2nc(N)nc(N)c2n1)c1ccc(C(=O)N[C@@H](CCC(=O)O)C(=O)O)cc1 [MTX, methotrexate]	–	–	9.8±0.8	reduced acute disease severity at days 10, 14, 17, and 21	significantly reduces disease scoring	significant decrease in disease severity	significantly reduces disease scoring	substantially prevented adverse bone remodeling	reduced the severity of cartilage damage	reduced the severity of proteoglycan loss
